Source: patent US7470446B2, “Method and system for supplying amino acids or chemical derivatives in liquid form to ruminant livestock” (Archer-Daniels-Midland Company, priority 2000, dated 2008)
Where two headings read alike, the source gives them in different places.

Assay: Plasma lysine response after liquid lysine drench
Type: in vivo, bovines
Details: cattle (bovine), oral, 60 g; for concentration at 148 min: 148 minutes (so in the source)
Excerpt: The following study, performed using liquid lysine supplied in a 60-gram amino acid dose in a liquid drench to two bovines, gave the following response curves in the plasma level of the lysine, which is an index of its absorption by the animals, and illustrates that the esophageal muscle reflex is active: […]

[1] = Cow 1, 60-gram dose, read-out: Cow 1, plasma lysine
[2] = Cow 2, 60-gram dose, read-out: Cow 2, plasma lysine

NCCCC[C@H](N)C(=O)O [liquid lysine, lysine]
concentration at 0 min (Cow 1, 60-gram amino acid dose, read-out: Cow 1, plasma lysine): 10000 ng/mL
concentration at 80 min [1]: 11300 ng/mL
concentration at 148 min [1]: 19700 ng/mL
concentration at 160 min [1]: 12400 ng/mL
concentration at 240 min [1]: 16100 ng/mL
concentration at 360 min [1]: 17300 ng/mL
concentration at 420 min [1]: 17500 ng/mL
concentration at 540 min [1]: 19300 ng/mL
concentration at 600 min [1]: 15400 ng/mL
concentration at 24 h [1]: 14400 ng/mL
concentration at 0 min (Cow 2, 60-gram amino acid dose, read-out: Cow 2, plasma lysine): 10700 ng/mL
concentration at 80 min [2]: 10800 ng/mL
concentration at 148 min [2]: 20000 ng/mL
concentration at 160 min [2]: 13600 ng/mL
concentration at 240 min [2]: 22400 ng/mL
concentration at 360 min [2]: 24200 ng/mL
concentration at 420 min [2]: 24200 ng/mL
concentration at 540 min [2]: 17000 ng/mL
concentration at 600 min [2]: 14200 ng/mL
concentration at 24 h [2]: 12000 ng/mL
